In US10100058B2, “Fused heterocyclic compounds as CaM kinase inhibitors” (Gilead Sciences, Inc., priority 2016, dated 2018):

Each compound was assayed against recombinant CaMKIIδ (Homo sapiens (Human), UniProt Q13557) (assay: CaMKIIδ biochemical assay (HTRF)). Details: 10 pM CaMKIIδ, 110 nM calmodulin, 12 μM ATP, 1 hour; read-out: CAMKIID-HTRF-384V2 (IC50 - nM).
Description: CaMKIIδ Biochemical Assay
The biochemical activity of recombinant CaMKIIδ was measured by monitoring the phosphorylation of a target peptide using Homogenous Time Resolved Fluorescence (HTRF) technology from CisBio Bioassays.
Work on `N[C@H]1CCN(C(=O)c2ccnc(-c3cnn4ccc(-c5cccs5)nc34)c2)C1` [Example 85, (S)-(3-aminopyrrolidin-1-yl)(2-(5-(thiophen-2-yl)pyrazolo[1,5-a]pyrimidin-3-yl)pyridin-4-yl)methanone] yielded an IC50 of 4.8 nM. Compound `CCN(CC)[C@@H](C)CNC(=O)c1cc(OC[C@H]2CCCO2)nc(-c2cnn3ccc(-c4cccs4)nc23)c1` [Example 343, N—((S)-2-(diethylamino)propyl)-2-(((R)-tetrahydrofuran-2-yl)methoxy)-6-(5-(thiophen-2-yl)pyrazolo[1,5-a]pyrimidin-3-yl)isonicotinamide] has an IC50 of 0.26 nM. With `CC(C)(C)c1cc(C(=O)N2CCCC[C@@H]2CN)cc(-c2cnn3ccc(-c4ccccc4)nc23)n1` [Example 130, (R)-(2-(aminomethyl)piperidin-1-yl)(2-(tert-butyl)-6-(5-phenylpyrazolo[1,5-a]pyrimidin-3-yl)pyridin-4-yl)methanone] the IC50 was 266 nM. Work on `CCN(CC)[C@@H](C)CNC(=O)c1cc(-c2c[nH]nc2C(F)(F)F)nc(-c2cnn3ccc(-c4cccs4)nc23)c1` [Example 334, (S)—N-(2-(diethylamino)propyl)-2-(5-(thiophen-2-yl)pyrazolo[1,5-a]pyrimidin-3-yl)-6-(3-(trifluoromethyl)-1H-pyrazol-4-yl)isonicotinamide] yielded an IC50 of 0.19 nM. Compound `CCN(CC)CCNC(=O)c1cc(-c2cnn3ccc(-c4cccs4)nc23)nc(N2CC(OC)C2)c1` [Example 254, N-(2-(diethylamino)ethyl)-2-(3-methoxyazetidin-1-yl)-6-(5-(thiophen-2-yl)pyrazolo[1,5-a]pyrimidin-3-yl)isonicotinamide] has an IC50 of 0.86 nM. `CCC(N)CNC(=O)c1ccnc(-c2cnn3ccc(-c4ccccc4)nc23)c1` (centres unmarked) [Example 46, N-(2-aminobutyl)-2-(5-phenylpyrazolo[1,5-a]pyrimidin-3-yl)isonicotinamide] was tested, and the IC50 was 23.7 nM. `CCN(CC)[C@@H](C)CNC(=O)c1cc(OCC(C)(C)O)nc(-c2cnn3ccc(-c4cccs4)nc23)c1` [Example 353, (S)—N-(2-(diethylamino)propyl)-2-(2-hydroxy-2-methylpropoxy)-6-(5-(thiophen-2-yl)pyrazolo[1,5-a]pyrimidin-3-yl)isonicotinamide] showed an IC50 of 0.1 nM. For `CC(C)NC(CNC(=O)c1ccnc(-c2cnn3ccc(-c4ccccc4)nc23)c1)C(C)C` (centres unmarked) [Example 73, N-(2-(isopropylamino)-3-methylbutyl)-2-(5-phenylpyrazolo[1,5-a]pyrimidin-3-yl)isonicotinamide], the IC50 was 31.9 nM. Work on `CCN[C@@H](C)CNC(=O)c1cc(Cl)nc(-c2cnn3ccc(-c4ccccc4)nc23)c1` [Example 124, (S)-2-chloro-N-(2-(ethylamino)propyl)-6-(5-phenylpyrazolo[1,5-a]pyrimidin-3-yl)isonicotinamide] yielded an IC50 of 17.1 nM. Work on `CCN[C@@H](C)CNC(=O)c1cc(-c2cnn3ccc(-c4cccs4)nc23)nc(N2CC(OC)C2)c1` [Example 173, (S)—N-(2-(ethylamino)propyl)-2-(3-methoxyazetidin-1-yl)-6-(5-(thiophen-2-yl)pyrazolo[1,5-a]pyrimidin-3-yl)isonicotinamide] yielded an IC50 of 13 nM. For `CCN(CC)[C@@H](C)CNC(=O)c1cc(O[C@@H]2CCOC2)nc(-c2cnn3ccc(-c4cccs4)nc23)c1` [Example 346, N—((S)-2-(diethylamino)propyl)-2-(((R)-tetrahydrofuran-3-yl)oxy)-6-(5-(thiophen-2-yl)pyrazolo[1,5-a]pyrimidin-3-yl)isonicotinamide], the IC50 was 1.07 nM. For `COCCNc1cc(C(=O)N2CC3CCC(C2)NC3)cc(-c2cnn3ccc(-c4cccs4)nc23)n1` (centres unmarked) [Example 323, (-3,6-diazabicyclo[3.2.2]nonan-3-yl)(2-((2-methoxyethyl)amino)-6-(5-(thiophen-2-yl)pyrazolo[1,5-a]pyrimidin-3-yl)pyridin-4-yl)methanone], the IC50 was 3.22 nM. With `CCN[C@@H](C)CNC(=O)c1ccnc(-c2cnn3ccc(-c4cccs4)nc23)c1` [Example 20, (S)—N-(2-(ethylamino)propyl)-2-(5-(thiophen-2-yl)pyrazolo[1,5-a]pyrimidin-3-yl)isonicotinamide] the IC50 was 4.97 nM. With `CCN(CC)[C@@H](C)CNC(=O)c1cc(-c2cnn3ccc(-c4cccs4)nc23)nc(N2CCC(C)(O)CC2)c1` [Example 163, (S)—N-(2-(diethylamino)propyl)-2-(4-hydroxy-4-methylpiperidin-1-yl)-6-(5-(thiophen-2-yl)pyrazolo[1,5-a]pyrimidin-3-yl)isonicotinamide] the IC50 was 0.18 nM. For `CCN[C@@H](C)CNC(=O)c1cc(C)nc(-c2cnn3ccc(-c4ccccc4)nc23)c1` [Example 120, (S)—N-(2-(ethylamino)propyl)-2-methyl-6-(5-phenylpyrazolo[1,5-a]pyrimidin-3-yl)isonicotinamide], the IC50 was 41.8 nM. With `CCN(CC)[C@@H](C)CNC(=O)c1cc(-c2cnn3ccc(-c4cccs4)nc23)nc(N2CCC[C@@H]2C(N)=O)c1` [Example 269, 2-((R)-2-carbamoylpyrrolidin-1-yl)-N—((S)-2-(diethylamino)propyl)-6-(5-(thiophen-2-yl)pyrazolo[1,5-a]pyrimidin-3-yl)isonicotinamide] the IC50 was 6.05 nM. `CCN(CC)[C@@H](C)CNC(=O)c1cc(N)nc(-c2cnn3ccc(-c4ccccc4)nc23)c1` [Example 114, (S)-2-amino-N-(2-(diethylamino)propyl)-6-(5-phenylpyrazolo[1,5-a]pyrimidin-3-yl)isonicotinamide] was tested, and the IC50 was 0.5 nM. `CCN(CC)[C@@H](C)CNC(=O)c1cc(OCCc2cnccn2)nc(-c2cnn3ccc(-c4cccs4)nc23)c1` [Example 350, (S)—N-(2-(diethylamino)propyl)-2-(2-(pyrazin-2-yl)ethoxy)-6-(5-(thiophen-2-yl)pyrazolo[1,5-a]pyrimidin-3-yl)isonicotinamide] gave an IC50 of 0.31 nM. `CCN(CC)[C@@H](C)CNC(=O)c1cc(-c2cnn3ccc(-c4cccs4)nc23)nc(N2CC(S(=O)(=O)NC3CC3)C2)c1` [Example 151, (S)-2-(3-(N-cyclopropylsulfamoyl)azetidin-1-yl)-N-(2-(diethylamino)propyl)-6-(5-(thiophen-2-yl)pyrazolo[1,5-a]pyrimidin-3-yl)isonicotinamide] was tested, and the IC50 was 0.32 nM. With `CC[C@@]1(CNC(=O)c2ccnc(-c3cnn4ccc(-c5cccs5)nc34)c2)CCCN1` [Example 11, (S)—N-((2-ethylpyrrolidin-2-yl)methyl)-2-(5-(thiophen-2-yl)pyrazolo[1,5-a]pyrimidin-3-yl)isonicotinamide] the IC50 was 10.7 nM. In the case of `CCN(CC)[C@@H](C)CNC(=O)c1cc(-c2cnn3ccc(-c4cccs4)nc23)nc(N2CC(C)(C)C2)c1` [Example 152, (S)—N-(2-(diethylamino)propyl)-2-(3,3-dimethylazetidin-1-yl)-6-(5-(thiophen-2-yl)pyrazolo[1,5-a]pyrimidin-3-yl)isonicotinamide], the IC50 is reported as 0.59 nM. For `CCN(CC)[C@@H](C)CNC(=O)c1cc(N[C@@H](C)CO)nc(-c2cnn3ccc(-c4cccs4)nc23)c1` [Example 200, N—((S)-2-(diethylamino)propyl)-2-(((S)-1-hydroxypropan-2-yl)amino)-6-(5-(thiophen-2-yl)pyrazolo[1,5-a]pyrimidin-3-yl)isonicotinamide], the IC50 was 0.16 nM. Work on `CCN(CC)[C@@H](C)CNC(=O)c1cc(-c2cnn3ccc(-c4cccs4)nc23)nc(N2CCC3(COC3)C2)c1` [Example 233, (S)—N-(2-(diethylamino)propyl)-2-(2-oxa-6-azaspiro[3.4]octan-6-yl)-6-(5-(thiophen-2-yl)pyrazolo[1,5-a]pyrimidin-3-yl)isonicotinamide] yielded an IC50 of 0.18 nM.
